Reference: patent US10774084B2, “Adenine derivatives and their use as UV-photoprotective agents” (UNIVERZITA PALACKEHO V OLOMOUCI, priority 2015, dated 2020)

How the values were obtained:
GSH depletion = assay: UVA-induced GSH depletion in NHDF (DTNB); type: cell-based, human
Excerpt: (§1) Normal human dermal fibroblasts (NHDF) were used as an in vitro model. Cells were isolated from tissue specimens obtained from healthy patients undergoing plastic surgery at the Department of Plastic and Aesthetic Surgery (University Hospital Olomouc). The use of skin tissue was in accordance with the Ethics Committee of the University Hospital and Faculty of Medicine and Dentistry, Palacky University, Olomouc and all patients signed written informed consent. Fibroblasts were used between the 2nd and 4th passage. […]
(§2) Test compounds included 6-(tetrahydrofuran-2-ylmethylamino)-9-(tetrahydrofuran-2-yl)purine and positive control (rosmarinic acid). […] Intensity of UVA radiation was evaluated before each irradiation by UVA-meter. […] After 1 hour (37° C., 5% CO2) cell damage was evaluated by analysis of reactive oxygen species (ROS) production. In parallel, intracellular levels of glutathion (GSH) were measured 4 hours (37° C., 5% CO2) after UVA application.
GSH levels in NHDF were evaluated by reaction with 5,5′-Dithiobis(2-nitrobenzoic acid) (DTNB). […] Absorbance was measured at 412 nm. Protein content was analyzed spectrophotometrically by Lowry's method at 680 nm.
Activity of test compounds (not irradiated) in analyzed parameters were evaluated by comparison of experimental data according to the following equation: […]

ROS production = assay: UVA-induced ROS production in NHDF (H2DCFDA); type: cell-based, human
Excerpt: as §1, §2
ROS production was evaluated by 2,7-Dichlorodihydrofluorescein diacetate (H2DCFDA). […] Samples were applied on 96-well plate and fluorescence was measured (488/525 nm) (INFINITE M200, Tecan, Switzerland) after centrifugation (10 000 rpm, 4° C., 10 min). Protein content was analyzed spectrophotometrically by bicinchoninic acid at 562 nm (INFINITE M200, Tecan, Switzerland). […]

[1] = non-irradiated NHDF, 2.5-20 μmol/l

c1nc(NCC2CCCO2)c2ncn(C3CCCO3)c2n1 (stereo not shown) [Compound 1, 6-(tetrahydrofuran-2-ylmethylamino)-9-(tetrahydrofuran-2-yl)purine]
protection against GSH depletion in comparison with rosmarinic acid (in words) (GSH depletion; UVA, NHDF): less effective | effect on GSH level in non-irradiated cells (in words) (GSH depletion; [1]): did not showed negative effect | protection against production of ROS in comparison with rosmarinic acid (in words) (ROS production; UVA, NHDF): more effective | effect on ROS production in non-irradiated cells (in words) (ROS production; [1]): did not showed negative effect
